Biological target: T1, human PAH with the R408W mutation (Homo sapiens, UniProt P00439, R408W)
T1 construct: expressed in transfected cells
T1 sequence (P00439 1-452 R408W): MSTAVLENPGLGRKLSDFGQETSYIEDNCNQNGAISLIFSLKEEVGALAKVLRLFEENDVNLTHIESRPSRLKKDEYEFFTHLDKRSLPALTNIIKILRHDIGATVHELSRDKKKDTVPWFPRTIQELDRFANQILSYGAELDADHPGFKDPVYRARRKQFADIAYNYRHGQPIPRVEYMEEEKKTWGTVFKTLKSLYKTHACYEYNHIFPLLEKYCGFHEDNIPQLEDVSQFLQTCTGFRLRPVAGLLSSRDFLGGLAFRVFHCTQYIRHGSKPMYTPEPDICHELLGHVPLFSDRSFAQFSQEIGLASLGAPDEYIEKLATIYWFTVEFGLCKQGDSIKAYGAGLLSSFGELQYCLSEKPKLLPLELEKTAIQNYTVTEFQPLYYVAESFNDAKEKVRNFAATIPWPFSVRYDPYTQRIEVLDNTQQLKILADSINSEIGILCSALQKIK
Experiment: Cell Based Phenylalanine Flux Assay
Settings: A375 cells expressing human R408W PAH; 24 hrs compound incubation; 13C-Tyrosine by LC-MS; average where tested multiple times; read-out: AC50

AC50	SMILES
< 500 nM	O=C(c1nnc(-c2ccccn2)o1)N1CC2(CC2)c2[nH]cnc2[C@H]1c1nc2ccccc2s1 [Example 1684, (S)-(4′-(benzo[d]thiazol-2-yl)spiro[cyclopropane-1,7′-imidazo[4,5-c]pyridin]-5′(1′H,4′H,6′H)-yl)(5-(pyridin-2-yl)-1,3,4-oxadiazol-2-yl)methanone]
1000 to 5000 nM	Cc1nnc(C(=O)N2CC3(CC3)c3[nH]cnc3[C@@H]2c2nc3ccccc3s2)o1 [Example 1685, (R)-(4′-(benzo[d]thiazol-2-yl)spiro[cyclopropane-1,7′-imidazo[4,5-c]pyridin]-5′(1′H,4′H,6′H)-yl)(5-methyl-1,3,4-oxadiazol-2-yl)methanone]
500 to 1000 nM	Cc1nnc(C(=O)N2CC3(CC3)c3[nH]cnc3[C@H]2c2nc3ccccc3s2)o1 [Example 1686, (S)-(4′-(benzo[d]thiazol-2-yl)spiro[cyclopropane-1,7′-imidazo[4,5-c]pyridin]-5′(1′H,4′H,6′H)-yl)(5-methyl-1,3,4-oxadiazol-2-yl)methanone]
< 500 nM	O=C(N1CCc2[nH]cnc2[C@H]1c1nc2ccccc2s1)C(F)(F)C1(O)CCC1 [Example 1687]
1000 to 5000 nM	O=C(N1CCc2[nH]cnc2[C@@H]1c1nc2ccccc2s1)C(F)(F)C1(O)CCC1 [Example 1688, (R)-1-(4-(benzo[d]thiazol-2-yl)-6,7-dihydro-1H-imidazo[4,5-c]pyridin-5(4H)-yl)-2,2-difluoro-2-(1-hydroxycyclobutyl)ethanone]
< 500 nM	O=C(N1CC(F)C1)N1CCc2[nH]cnc2[C@H]1c1nc2ccccc2s1 [Example 1689]
1000 to 5000 nM	O=C(N1CC(F)C1)N1CCc2[nH]cnc2[C@@H]1c1nc2ccccc2s1 [Example 1690, (R)-(4-(benzo[d]thiazol-2-yl)-6,7-dihydro-1H-imidazo[4,5-c]pyridin-5(4H)-yl)(3-fluoroazetidin-1-yl)methanone]
< 500 nM	O=C(N1CCC1)N1CCc2[nH]cnc2[C@H]1c1nc2ccccc2s1 [Example 1691, (S)-azetidin-1-yl(4-(benzo[d]thiazol-2-yl)-6,7-dihydro-1H-imidazo[4,5-c]pyridin-5(4H)-yl)methanone]
1000 to 5000 nM	O=C(N1CCC1)N1CCc2[nH]cnc2[C@@H]1c1nc2ccccc2s1 [Example 1692, (R)-azetidin-1-yl(4-(benzo[d]thiazol-2-yl)-6,7-dihydro-1H-imidazo[4,5-c]pyridin-5(4H)-yl)methanone]
500 to 1000 nM	Cc1nc(CN(C)C)oc1C(=O)N1CCc2[nH]cnc2[C@H]1c1nc2ccccc2s1 [Example 1693]
> 5000 nM	Cc1nc(CN(C)C)oc1C(=O)N1CCc2[nH]cnc2[C@@H]1c1nc2ccccc2s1 [Example 1694, (R)-(4-(benzo[d]thiazol-2-yl)-6,7-dihydro-1H-imidazo[4,5-c]pyridin-5(4H)-yl)(2-((dimethylamino)methyl)-4-methyloxazol-5-yl)methanone]
> 5000 nM	CC(C)(O)c1nnc(C(=O)N2CC3(CC3)c3[nH]cnc3[C@@H]2c2nc3ccccc3s2)o1 [Example 1695, (R)-(4′-(benzo[d]thiazol-2-yl)spiro[cyclopropane-1,7′-imidazo[4,5-c]pyridin]-5′(1′H,4′H,6′H)-yl)(5-(2-hydroxypropan-2-yl)-1,3,4-oxadiazol-2-yl)methanone]
500 to 1000 nM	CC(C)(O)c1nnc(C(=O)N2CC3(CC3)c3[nH]cnc3[C@H]2c2nc3ccccc3s2)o1 [Example 1696, (S)-(4′-(benzo[d]thiazol-2-yl)spiro[cyclopropane-1,7′-imidazo[4,5-c]pyridin]-5′(1′H,4′H,6′H)-yl)(5-(2-hydroxypropan-2-yl)-1,3,4-oxadiazol-2-yl)methanone]
500 to 1000 nM	CC(C)(O)c1nc(C#N)c(C(=O)N2CCc3[nH]cnc3[C@H]2c2nc3ccccc3s2)o1 [Example 1697, (S)-5-(4-(benzo[d]thiazol-2-yl)-4,5,6,7-tetrahydro-1H-imidazo[4,5-c]pyridine-5-carbonyl)-2-(2-hydroxypropan-2-yl)oxazole-4-carbonitrile]

Second part, the compound before the results:

SMILES	AC50
O=C(c1ocnc1C(F)(F)F)N1CC2(CC2)c2[nH]cnc2[C@H]1c1nc2ccccc2s1 [Example 1668, (S)-(4′-(benzo[d]thiazol-2-yl)spiro[cyclopropane-1,7′-imidazo[4,5-c]pyridin]-5′(1′H,4′H,6′H)-yl)(4-(trifluoromethyl)oxazol-5-yl)methanone]	< 500 nM
O=C(c1ocnc1C1CC1)N1CC2(CC2)c2[nH]cnc2[C@H]1c1nc2ccccc2s1 [Example 1669, (S)-(4′-(benzo[d]thiazol-2-yl)spiro[cyclopropane-1,7′-imidazo[4,5-c]pyridin]-5′(1′H,4′H,6′H)-yl)(4-cyclopropyloxazol-5-yl)methanone]	< 500 nM
O=C(c1ocnc1C1CC1)N1CC2(CC2)c2[nH]cnc2[C@@H]1c1nc2ccccc2s1 [Example 1670, (R)-(4′-(benzo[d]thiazol-2-yl)spiro[cyclopropane-1,7′-imidazo[4,5-c]pyridin]-5′(1′H,4′H,6′H)-yl)(4-cyclopropyloxazol-5-yl)methanone]	1000 to 5000 nM
Cc1nc(CCCN2CC(F)C2)oc1C(=O)N1CCc2[nH]cnc2[C@H]1c1nc2ccccc2s1 [Example 1671]	500 to 1000 nM
Cc1nc(CCCN2CC(F)C2)oc1C(=O)N1CCc2[nH]cnc2[C@@H]1c1nc2ccccc2s1 [Example 1672, (R)-(4-(benzo[d]thiazol-2-yl)-6,7-dihydro-1H-imidazo[4,5-c]pyridin-5(4H)-yl)(2-(3-(3-fluoroazetidin-1-yl)propyl)-4-methyloxazol-5-yl)methanone]	> 5000 nM
N#Cc1nc(OCCC(F)(F)F)oc1C(=O)N1CCc2[nH]cnc2[C@@H]1c1nc2ccccc2s1 [Example 1673, (R)-5-(4-(benzo[d]thiazol-2-yl)-4,5,6,7-tetrahydro-1H-imidazo[4,5-c]pyridine-5-carbonyl)-2-(3,3,3-trifluoropropoxy)oxazole-4-carbonitrile]	> 5000 nM
N#Cc1nc(OCCC(F)(F)F)oc1C(=O)N1CCc2[nH]cnc2[C@H]1c1nc2ccccc2s1 [Example 1674, (S)-5-(4-(benzo[d]thiazol-2-yl)-4,5,6,7-tetrahydro-1H-imidazo[4,5-c]pyridine-5-carbonyl)-2-(3,3,3-trifluoropropoxy)oxazole-4-carbonitrile]	500 to 1000 nM
CN(C)CCc1nc(C(F)(F)F)c(C(=O)N2CCc3[nH]cnc3[C@H]2c2nc3c(F)cccc3s2)o1 [Example 1675]	< 500 nM
CN(C)CCc1nc(C(F)(F)F)c(C(=O)N2CCc3[nH]cnc3[C@@H]2c2nc3c(F)cccc3s2)o1 [Example 1676, (R)-(2-(2-(dimethylamino)ethyl)-4-(trifluoromethyl)oxazol-5-yl)(4-(4-fluorobenzo[d]thiazol-2-yl)-6,7-dihydro-1H-imidazo[4,5-c]pyridin-5(4H)-yl)methanone]	< 500 nM
CC(C)(O)c1ncc(C(=O)N2CC3(CC3)c3[nH]cnc3[C@H]2c2nc3ccccc3s2)o1 [Example 1677, (S)-(4′-(benzo[d]thiazol-2-yl)spiro[cyclopropane-1,7′-imidazo[4,5-c]pyridin]-5′(1′H,4′H,6′H)-yl)(2-(2-hydroxypropan-2-yl)oxazol-5-yl)methanone]	500 to 1000 nM
CC(C)(O)c1ncc(C(=O)N2CC3(CC3)c3[nH]cnc3[C@@H]2c2nc3ccccc3s2)o1 [Example 1678, (R)-(4′-(benzo[d]thiazol-2-yl)spiro[cyclopropane-1,7′-imidazo[4,5-c]pyridin]-5′(1′H,4′H,6′H)-yl)(2-(2-hydroxypropan-2-yl)oxazol-5-yl)methanone]	1000 to 5000 nM
CC(C)(O)c1nc(C(F)(F)F)c(C(=O)N2CC3(CC3)c3[nH]cnc3[C@H]2c2nc3ccccc3s2)o1 [Example 1679, (S)-(4′-(benzo[d]thiazol-2-yl)spiro[cyclopropane-1,7′-imidazo[4,5-c]pyridin]-5′(1′H,4′H,6′H)-yl)(2-(2-hydroxypropan-2-yl)-4-(trifluoromethyl)oxazol-5-yl)methanone]	500 to 1000 nM
CC(C)(O)c1nc(C(F)(F)F)c(C(=O)N2CC3(CC3)c3[nH]cnc3[C@@H]2c2nc3ccccc3s2)o1 [Example 1680, (R)-(4′-(benzo[d]thiazol-2-yl)spiro[cyclopropane-1,7′-imidazo[4,5-c]pyridin]-5′(1′H,4′H,6′H)-yl)(2-(2-hydroxypropan-2-yl)-4-(trifluoromethyl)oxazol-5-yl)methanone]	1000 to 5000 nM
O=C(c1oc(-c2ccccn2)nc1C(F)(F)F)N1CC2(CC2)c2[nH]cnc2[C@H]1c1nc2ccccc2s1 [Example 1681, (S)-(4′-(benzo[d]thiazol-2-yl)spiro[cyclopropane-1,7′-imidazo[4,5-c]pyridin]-5′(1′H,4′H,6′H)-yl)(2-(pyridin-2-yl)-4-(trifluoromethyl)oxazol-5-yl)methanone]	500 to 1000 nM
O=C(c1oc(-c2ccccn2)nc1C(F)(F)F)N1CC2(CC2)c2[nH]cnc2[C@@H]1c1nc2ccccc2s1 [Example 1682, (R)-(4′-(benzo[d]thiazol-2-yl)spiro[cyclopropane-1,7′-imidazo[4,5-c]pyridin]-5′(1′H,4′H,6′H)-yl)(2-(pyridin-2-yl)-4-(trifluoromethyl)oxazol-5-yl)methanone]	1000 to 5000 nM
O=C(c1nnc(-c2ccccn2)o1)N1CC2(CC2)c2[nH]cnc2[C@@H]1c1nc2ccccc2s1 [Example 1683, (R)-(4′-(benzo[d]thiazol-2-yl)spiro[cyclopropane-1,7′-imidazo[4,5-c]pyridin]-5′(1′H,4′H,6′H)-yl)(5-(pyridin-2-yl)-1,3,4-oxadiazol-2-yl)methanone]	1000 to 5000 nM

From patent US20250171438A1 (Agios Pharmaceuticals, Inc., priority 2022, published 2025)
